In patent US6025385A, “Taxane derivatives and drugs containing the same” (Kabushiki Kaisha Yakult Honsha, priority 1996, dated 2000):
Converted amounts (≈) assume the structure as drawn. Like-named read-outs stand apart in the source and are kept apart here.

Assays:
[1] = background statement; cited from earlier work
[2] = Solubility in water (HPLC, shaken 2 hours at room temperature); details: for Dissolved amount (Y): amount in 5 μl injected, purified water with 0.1 N hydrochloric acid, room temperature, 2 hours; for solubility thermodynamic at 2 h: water with 0.1 n hcl
Protocol: I) Preparation of calibration curves:
Using 20 μl portions of the standard solutions, tests were conducted by HPLC (operation conditions 1).
[HPLC operation conditions 1]
Column: Inertsil ODS-2 (5-250), 40 deg.
Mobile phase: 0.01 M KH2 PO4 --CH3 CN (5:4).
Detection: Ultraviolet absorption photometer (225 nm), 0.08AUFS.
To the respective suspensions, 0.1 N hydrochloric acid was added in amounts of 35 λl and 30 μl (1.1 eq.). By ultrasonication the resulting mixtures were formed into uniform suspensions, which were then shaken at room temperature for 2 hours. The thus-obtained mixtures were filtered through membrane filters (0.22 pm), and the filtrates were provided as test solutions. Using 5 μl portions of the test solutions, tests were conducted by HPLC (operation conditions 1).
I) Preparation of calibration curve:
By ultra-sonication the suspension was formed into a uniform suspension, which was then shaken at room temperature for 2 hours.
Using 20 At of the standard solution, a test was conducted by HPLC (operation conditions 1).
Operation conditions for the HPLC operation were set as in Test 1.
By ultrasonication the resulting mixture was formed into a uniform suspension, which was then shaken at room temperature for 2 hours. The mixture was filtered through a membrane filter (0.22 pm), and the filtrate was provided as a test solution. Using 5 μl of the test solution, a test was conducted by HPLC (the above operation conditions).

[3] = tested on: cell strain KB derived from a human mouth cancer; assay: Growth inhibitory activity against KB cells (XTT assay); type: cell-based; details: for GI50: Homo sapiens, 72 h, read-out: 50% Growth Inhibitory Concentration (GI50), KB; for Activity ratio: KB GI50 relative to Taxol (Taxol = 1.0)
Protocol: Growth Inhibitory Activities of Taxane Derivatives (1)
As a cell strain KB derived from a human mouth cancer, one purchased from Dainippon Pharmaceutical Co., Ltd. and stored in a lyophilized form at The Central Research Center, Yakult Honsha Co., Ltd. was used. In Dulbeccols modefied Earglets medium containing 10% fetal bovine serum (product of NISSUI PHARMACEUTICAL CO., LTD.), the KB was maintenance-cultured under the following conditions: 5%, CO2 -air, 37° C.
Each compound was used by dissolving it at a concentration of 10 mg/ml in DMSO.
On Day-1, cells which were in a logarithmic growth phase were inoculated at 2,000 cells/100 μl/well on 96-well microtiter plates (Falcon #3072) by using a phenol-red-free culture medium with 10% fetal bovine serum contained therein (Dulbecco's molefied Eargle's medium (Sigma)), and were cultured overnight. On Day 0, the compounds each of which had been diluted to 0.03 to 10,000 ng/ml with the same culture medium were added in 100 μl aliquots to the individual wells, and the cells were cultured for 3 days. Three wells were used per each drug concentration. Each plate was provided with three blank wells containing only the culture medium and also with eight wells as a drug-untreated control.
Before use, XTT (Sigma) was dissolved at a concentration of 1 mg/me in each culture media which as free of serum. Phenodin methosulfate (Sigma) dissolved at a concentration of 5 mM in PBS was added to the resulting solution at a volume ratio of 1/200. To each well, the solution so prepared was added in an amount of 50 μl per well. Subsequent to culture for 4 hours, OD was measured at 450 nm by ELISA.
Calculation of 50% Growth Inhibitory Concentration (GI50)
GI50 was calculated by interpolation from a concentration-growth inhibition rate (GIR). GIR was determined in accordance with the following formula: [formula] Bibiography Scudiero D A, et al., Cacer Res., 48, 4827-4833, 1988.
1994 Report of The Anticancer Agent Screening Special Committee, "Cancers and Chemotherapy", 21, 1306-1307.

[4] = tested on: ovarian cancer and breast cancer; details: Ann. int. Med. 111, 273, 1989; cited from earlier work
[5] = purified water with hydrochloric acid

In the case of CC(=O)O[C@H]1C(=O)[C@@]2(C)[C@H]([C@H](OC(=O)c3ccccc3)[C@]3(O)C[C@H](OC(=O)[C@H](O)[C@@H](NC(=O)c4ccccc4)c4ccccc4)C(C)=C1C3(C)C)[C@]1(OC(C)=O)CO[C@@H]1C[C@@H]2O [Taxol, reference compound], the “solubility in water (in words)” value [1] is given as “sparingly soluble in water”, the solubility at 2 h ([2]; purified water) is given as 0.4 µg/mL (≈ 0.468 µM) and the GI50 ([3]; KB) is given as 2 ng/mL (≈ 0.00234 µM). For the same molecule, the “efficacy against ovarian cancer and breast cancer” value [4] was “high efficacy against ovarian cancer and breast cancer”.
With CC(=O)O[C@H]1C(=O)[C@@]2(C)[C@H]([C@H](OC(=O)c3ccccc3)[C@]3(O)C[C@H](OC(=O)[C@H](O)[C@@H](NC(=O)N4CCC(N5CCCCC5)CC4)c4ccccc4)C(C)=C1C3(C)C)[C@]1(OC(C)=O)CO[C@@H]1C[C@@H]2O [Compound 58, 13-O-[2-Hydroxy-3-phenyl-3-(4-piperidinopiperidinocarbonylamino)propionyl]baccatin III] the “Dissolved amount (Y)” value [2] was 7.95 μg/5 μl, the solubility at 2 h [2, 5] was 1590 µg/mL (≈ 1680 µM) and the solubility thermodynamic at 2 h [2] was 1590 µg/mL (≈ 1680 µM).
For CC(=O)O[C@@]12CO[C@@H]1C[C@H](O)[C@@]1(C)C(=O)[C@H](OC(=O)N3CCC(N(C)C)CC3)C3=C(C)[C@@H](OC(=O)[C@H](O)[C@@H](NC(=O)OC(C)(C)C)c4ccccc4)C[C@@](O)([C@@H](OC(=O)c4ccccc4)[C@H]21)C3(C)C [Compound 3, 13-O-[3-(tert-Butoxycarbonylamino)-2-hydroxy-3-phenylpropionyl]-10-O-(4-dimethylaminopiperidinocarbonyl)-10-deacetylbaccatin III], the “Dissolved amount (Y)” value [2] was 6.31 μg/5 μl, the solubility at 2 h [2, 5] was 1260 µg/mL (≈ 1310 µM) and the solubility thermodynamic at 2 h [2] was 1260 µg/mL (≈ 1310 µM).
Work on CCCN(CCC)C1CCN(C(=O)O[C@H]2C(=O)[C@@]3(C)[C@H]([C@H](OC(=O)c4ccccc4)[C@]4(O)C[C@H](OC(=O)[C@H](O)[C@@H](NC(=O)OC(C)(C)C)c5ccccc5)C(C)=C2C4(C)C)[C@]2(OC(C)=O)CO[C@@H]2C[C@@H]3O)CC1 [Compound 6, 13-O-[3-(tert-Butoxycarbonylamino)-2-hydroxy-3-phenylpropionyl]-10-O-(4-dipropylaminopiperidinocarbonyl)-10-deacetylbaccatin III] yielded a GI50 ([3]; KB) of 0.73 ng/mL (≈ 0.000717 µM) and an Activity ratio [3] of 2.7.
With CC(=O)O[C@@]12CO[C@@H]1C[C@H](O)[C@@]1(C)C(=O)[C@H](OC(=O)N3CCC(N4CCCCC4)CC3)C3=C(C)[C@@H](OC(=O)[C@H](O)[C@@H](NC(=O)OC(C)(C)C)c4ccccc4)C[C@@](O)([C@@H](OC(=O)c4ccccc4)[C@H]21)C3(C)C [Compound 9, 13-O-[3-(tert-Butoxycarbonylamino)-2-hydroxy-3-phenylpropionyl]-10-O-(4-piperidinopiperidinocarbonyl)-10-deacetylbaccatin III] the GI50 ([3]; KB cells, 3 days culture, XTT) was 0.78 ng/mL (≈ 0.000778 µM) and the Activity ratio [3] was 2.6.
In the case of CC(=O)O[C@@]12CO[C@@H]1C[C@H](O)[C@@]1(C)C(=O)[C@H](OC(=O)N3CCN(C)CC3)C3=C(C)[C@@H](OC(=O)[C@H](O)[C@@H](NC(=O)OC(C)(C)C)c4ccccc4)C[C@@](O)([C@@H](OC(=O)c4ccccc4)[C@H]21)C3(C)C [Compound 39, 13-O-[3-(tert-Butoxycarbonylamino)-2-hydroxy-3-phenylpropionyl]-10-O-(4-methylpiperazinocarbonyl)-10-deacetylbaccatin III], the GI50 ([3]; KB cells, 3 days culture, XTT) is reported as 0.59 ng/mL (≈ 0.000632 µM) and the Activity ratio [3] is reported as 3.4.
With CCN1CCN(C(=O)O[C@H]2C(=O)[C@@]3(C)[C@H]([C@H](OC(=O)c4ccccc4)[C@]4(O)C[C@H](OC(=O)[C@H](O)[C@@H](NC(=O)OC(C)(C)C)c5ccccc5)C(C)=C2C4(C)C)[C@]2(OC(C)=O)CO[C@@H]2C[C@@H]3O)CC1 [Compound 42, 13-O-[3-(tert-Butoxycarbonylamino)-2-hydroxy-3-phenylpropionyl]-10-O-(4-ethylpiperazinocarbonyl)-10-deacetylbaccatin III] the “Dissolved amount (Y)” value [2] was 5.90 μg/5 μl, the solubility at 2 h [2, 5] was 1180 µg/mL (≈ 1240 µM) and the solubility thermodynamic at 2 h [2] was 1180 µg/mL (≈ 1240 µM). For the same molecule, the GI50 ([3]; KB) was 0.65 ng/mL (≈ 0.000686 µM) and the Activity ratio [3] was 3.1.
CC(=O)O[C@@]12CO[C@@H]1C[C@H](O)[C@@]1(C)C(=O)[C@H](OC(=O)N3CCN(CC(=O)NC(C)C)CC3)C3=C(C)[C@@H](OC(=O)[C@H](O)[C@@H](NC(=O)OC(C)(C)C)c4ccccc4)C[C@@](O)([C@@H](OC(=O)c4ccccc4)[C@H]21)C3(C)C [Compound 45, 13-O-[3-(tert-Butoxycarbonylamino)-2-hydroxy-3-phenylpropionyl]-10-O-[4-(isopropylaminocarbonylmethyl)piperazinocarbonyl]-10-deacetylbaccatin III] gave a GI50 ([3]; KB cells, 3 days culture, XTT) of 0.86 ng/mL (≈ 0.000844 µM) and an Activity ratio [3] of 2.3.
